{
  "source": "paper PMC8134483",
  "about": "(Scientific Reports, 2021)",
  "key": {"[1]": {"biological_target": "T1, hCB1R (Homo sapiens, UniProt P21554)", "T1 construct": "expressed in transfected cells; host or cells: CHO-K1", "T1 sequence (P21554 whole entry)": "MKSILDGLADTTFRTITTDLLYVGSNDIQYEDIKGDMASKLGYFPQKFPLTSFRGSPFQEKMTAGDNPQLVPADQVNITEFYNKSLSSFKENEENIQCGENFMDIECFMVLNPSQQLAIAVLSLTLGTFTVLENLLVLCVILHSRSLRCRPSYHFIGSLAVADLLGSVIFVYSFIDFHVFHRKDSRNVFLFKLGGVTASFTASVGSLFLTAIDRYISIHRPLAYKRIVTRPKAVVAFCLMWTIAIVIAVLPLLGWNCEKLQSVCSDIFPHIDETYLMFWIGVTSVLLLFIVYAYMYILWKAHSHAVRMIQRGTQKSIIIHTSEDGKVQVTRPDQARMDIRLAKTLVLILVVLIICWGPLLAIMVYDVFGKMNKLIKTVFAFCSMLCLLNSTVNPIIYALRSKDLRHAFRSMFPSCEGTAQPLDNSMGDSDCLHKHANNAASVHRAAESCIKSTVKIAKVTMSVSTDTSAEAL", "experiment": "cell-based", "assay_type": "cell-based"}, "[2]": {"biological_target": "T2, hCB2R (Homo sapiens, UniProt P34972)", "T2 construct": "host or cells: CHO-K1 (PathHunter)", "T2 sequence (P34972 whole entry)": "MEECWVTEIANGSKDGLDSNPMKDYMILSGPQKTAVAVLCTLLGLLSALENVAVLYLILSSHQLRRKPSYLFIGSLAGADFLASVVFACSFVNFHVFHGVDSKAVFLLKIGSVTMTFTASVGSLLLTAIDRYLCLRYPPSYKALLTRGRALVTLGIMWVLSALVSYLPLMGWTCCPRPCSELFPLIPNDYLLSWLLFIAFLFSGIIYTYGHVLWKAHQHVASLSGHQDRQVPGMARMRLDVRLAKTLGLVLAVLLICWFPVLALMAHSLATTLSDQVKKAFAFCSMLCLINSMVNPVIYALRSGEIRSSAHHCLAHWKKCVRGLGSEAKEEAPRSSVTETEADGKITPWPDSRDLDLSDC", "experiment": "[^3H]CP55,940 competition (radioligand displacement) binding to CB2R"}, "[3]": {"test_system": "male C57Bl/6 mice", "experiment": "Elevated plus maze (EPM)", "assay_type": "in vivo", "conditions": "1.0 mg/kg i.p., 30 min after treatment, 5 min trial", "procedure": "(§1) Adult male C57BL/6 mice aged 6–10 weeks (mean weight 24 ± 0.5 g) were purchased from Charles River Labs (Senneville, QC). Animals were group housed (three per cage) with ad libitum access to food, water, and environmental enrichment and maintained on a 12 h light/dark cycle. Mice were randomly assigned to receive i.p. injections of vehicle (1:1:18 ethanol:emulphor:saline) or 0.1–10 mg/kg SCRA (n ≥ 4 per group). All protocols have been described previously and were in accordance with the guidelines detailed by the Canadian Council on Animal Care and approved by the Animal Research Ethics Board and the Scientific Merit Review Committee for Animal Behaviour at the University of Saskatchewan. The following steps were taken to ensure our study was in keeping with the ARRIVE guidelines: (1) power analyses were conducted to determine the minimum number of animals required for the study; (2) animals were purchased—rather than bred—to limit animal waste; and (3) all assessments of animal behaviour were made by individuals blinded to the treatment group,[57].\nEPM was conducted according to methods adapted from Marks et al.. The EPM was built from a plywood base painted blue with blue corrugated plastic floor and walls. The floor of the maze was composed of perpendicular interlocking arms (110 cm long × 10 cm wide) with two arms having 45 cm walls (closed arms) and two arms having no walls and a 0.5 cm edge (open arms), all elevated 45 cm from the ground. Trials began with the mouse in the central zone facing an open arm. Trials lasted 5 min and began 30 min after SCRA treatment. An arm entry was considered to be all four limbs leaving the central zone. Arm entries and the percent time spent in open versus closed arms were recorded by an observer blinded to the treatment group. Less time in the open arms and more time in the closed arms was used as a model of anxiogenic behaviour."}, "[4]": {"test_system": "male C57Bl/6 mice", "experiment": "Catalepsy, ring holding assay", "assay_type": "in vivo", "conditions": "0.1–10 mg/kg i.p.; 5 min; % MPE 60 s", "procedure": "as §1, with “The following steps were taken to ensure our study was in keeping with the ARRIVE guidelines: (1) power analyses were conducted to determine the minimum number of animals required for the study; (2) animals were purchased—rather than bred—to limit animal waste; and (3) all assessments of animal behaviour were made by individuals blinded to the treatment group,[57].” left out\n(§2) Modified tetrad testing (catalepsy, body temperature, tail flick assay) was conducted according to previously described methods, which are summarized briefly here. […] Catalepsy was assessed in the ring holding assay 5 min following injection with mouse forepaws clasped to a 5 mm ring positioned 5 cm above the surface of the testing space. The length of time the ring was held was recorded (s) to a maximum time of 60 s (i.e. MPE = 60 s). Internal body temperature was measured 15 min after injection. Anti-nociception was determined by assessing tail flick latency 20 min after injection. […]"}, "[5]": {"biological_target": "T1, hCB1R", "experiment": "cell-based", "assay_type": "cell-based", "remark": "listed apart in the source"}, "[6]": {"biological_target": "T1, hCB1R", "experiment": "CB1R bias analysis (operational model, cAMP inhibition vs βarrestin2)", "assay_type": "cell-based", "procedure": "(§3) Estimates of Ki, EC50, Emin, and Emax were determined using non-linear regression with variable slope (four parameters) (GraphPad, Prism, v. 8.0). […] One-way analysis of variance (ANOVA), followed by Tukey’s post-hoc test, was used for statistical analyses (p < 0.05 determined to be significant); and Bartlett’s test was used to confirm homogeneity of variance (GraphPad)."}, "[7]": {"biological_target": "T1, hCB1R", "experiment": "biochemical", "assay_type": "binding"}, "[8]": {"biological_target": "T2, hCB2R", "experiment": "PathHunter βarrestin2 recruitment, CB2R", "assay_type": "cell-based"}, "[9]": {"test_system": "male C57Bl/6 mice", "experiment": "Internal body temperature", "assay_type": "in vivo", "conditions": "0.1–10 mg/kg i.p.; 15 min", "procedure": "as §1, with “The following steps were taken to ensure our study was in keeping with the ARRIVE guidelines: (1) power analyses were conducted to determine the minimum number of animals required for the study; (2) animals were purchased—rather than bred—to limit animal waste; and (3) all assessments of animal behaviour were made by individuals blinded to the treatment group,[57].” left out\nas §2"}, "[10]": {"biological_target": "T2, hCB2R", "experiment": "CB2R bias analysis (operational model, cAMP inhibition vs βarrestin2)", "assay_type": "cell-based", "conditions": "CP55,940 as reference agonist; >0 cAMP bias, <0 βarrestin2 bias", "procedure": "as §3"}, "[11]": {"biological_target": "T2, hCB2R", "experiment": "HitHunter inhibition of FSK-stimulated cAMP, CB2R", "assay_type": "cell-based"}, "[12]": {"test_system": "male C57Bl/6 mice", "experiment": "Anti-nociception, tail flick assay", "assay_type": "in vivo", "conditions": "0.1–10 mg/kg i.p.; 20 min; 52 °C; % MPE 20 s", "procedure": "as §1, with “The following steps were taken to ensure our study was in keeping with the ARRIVE guidelines: (1) power analyses were conducted to determine the minimum number of animals required for the study; (2) animals were purchased—rather than bred—to limit animal waste; and (3) all assessments of animal behaviour were made by individuals blinded to the treatment group,[57].” left out\nas §2"}, "[13]": {"conditions": "bottom of the concentration–response curve, mean ± SEM"}},
  "note": "Read-outs that look alike come from different tables or passages of the source.",
  "data": [
    {"smiles": "COC(=O)[C@@H](NC(=O)c1nn(CCCCF)c2ccccc12)C(C)(C)C", "note": "[4-fluoro MDMB-BINACA]", "values": [
      {"measurement": "EC50", "setting": "[1]; CHO hCB1R, 90 min, value with 95% CI, read-out: CB1R βarrestin2 recruitment EC50", "value": 88, "unit": "nM"},
      {"measurement": "Emax", "setting": "[1]; read-out: CB1R βarrestin2 recruitment Emax", "value": "240 ± 10", "unit": "%"},
      {"measurement": "βarrestin2 recruitment to CB1R, activity in words", "setting": "[1]; relative to CP55940", "value": "greater potency and produced supramaximal EMax responses"},
      {"measurement": "Affinity for CB2R compared with CP55,940, in words", "setting": "[2]", "value": "significantly greater affinity"},
      {"measurement": "Ki", "setting": "[2]", "value": 0.41, "unit": "nM"},
      {"measurement": "CB2R [^3H]CP55,940 Emin", "setting": "[2]; [13]", "value": "57 ± 11", "unit": "%"},
      {"measurement": "EPM time in the central quadrant", "setting": "[3]", "value": "majority of their time in the central quadrant immobile"},
      {"measurement": "EPM time in the open arms", "setting": "[3]", "value": "approximately the same amount of time in the open arm as vehicle-treated mice"},
      {"measurement": "EPM total arm entries", "setting": "[3]; vs vehicle", "value": "reduced total arm entries"},
      {"measurement": "Catalepsy response", "setting": "[4]", "value": "full agonist"},
      {"measurement": "EC50", "setting": "[5]; CHO hCB1R, 10 µM FSK, 90 min, value with 95% CI, read-out: CB1R cAMP Inhibition EC50", "value": 10, "unit": "nM"},
      {"measurement": "Emax", "setting": "[5]; read-out: CB1R cAMP Inhibition Emax", "value": "87 ± 5.6", "unit": "%"},
      {"measurement": "CB1R bias between cAMP inhibition and βarrestin2 recruitment, ∆∆LogR (cAMP—βarr2), in words", "setting": "[6]; CP55,940 as reference agonist, >0 cAMP bias, <0 βarrestin2 bias", "value": "significant bias toward the recruitment of βarrestin2"},
      {"measurement": "Observed CB1R bias in cell culture", "setting": "[6]; cAMP inhibition vs βarrestin2", "value": "βarrestin2"},
      {"measurement": "Ki", "setting": "[7]", "value": 99, "unit": "nM"},
      {"measurement": "CB1R versus CB2R selectivity, receptor affinity", "setting": "[7]; CB1R vs CB2R [^3H]CP55,940 binding", "value": "greater affinity at CB2R relative to CB1R"},
      {"measurement": "CB1R [^3H]CP55,940 Emin", "setting": "[7]; [13]", "value": "52 ± 7.5", "unit": "%"},
      {"measurement": "EC50", "setting": "[8]", "value": 120, "unit": "nM"},
      {"measurement": "Emax", "setting": "[8]", "value": "130 ± 8.2", "unit": "%"},
      {"measurement": "βarrestin2 recruitment to CB2R, activity in words", "setting": "[8]; relative to CP55,940", "value": "greater potency and produced supramaximal EMax responses"},
      {"measurement": "Body temperature (hypothermia) response", "setting": "[9]", "value": "full agonist"},
      {"measurement": "CB2R bias between cAMP inhibition and βarrestin2 recruitment, ∆∆LogR (cAMP—βarr2), in words", "setting": "[10]", "value": "significant bias toward the recruitment of βarrestin2"},
      {"measurement": "EC50", "setting": "[11]", "value": 0.56, "unit": "nM"},
      {"measurement": "Emax", "setting": "[11]", "value": "95 ± 11", "unit": "%"},
      {"measurement": "Anti-nociceptive response, tail flick", "setting": "[12]", "value": "full agonist"}
    ]}
  ]
}
